Common to all, as to assay type: in vivo, human
The test system of assay [1] is hemodialysis patients. Briefly: Cardiovascular calcification by Electron Beam Tomography (Agatston score), 52 week study. The settings on record: Week 0 to 52. As to the method:
The study was a 52 week, randomized, open label, multi-center, parallel study designed to assess the effects of sevelamer compared to calcium acetate/carbonate in enabling hemodialysis patients to reach therapeutic goals of phosphorus <5 mg/dL, calcium <10.5 mg/dL and iPTH in the range of 150-300 pg/mL. Patients also underwent Electron Beam Tomography (EBT) scans at Day 0 and Weeks 26 and 52. These scans were used to assess changes in cardiovascular calcification over time. A total of 202 patients who were on hemodialysis and taking one or more phosphate binders were randomized in a 1:1 design to receive either Renagel® or calcium acetate (United States)/carbonate (Europe), stratified by the presence or absence of diabetes.
Approximately 12 months into the Extension study, the analysis of the initial study was completed. […] This difference was statistically significant (p=0.0398). […] This difference was statistically significant (p=0.0104). When analyzed by percent change and weekly change, the results were consistently in favor of the sevelamer group. Complete results are described in the article referenced as Protocol 7 (Chertow, 2002).

The test system of assay [2] is hemodialysis patients. Briefly: Biochemical markers after 12 months of treatment (Example 2). The settings on record: on average, one treatment group relative to the other. As to the method: Following the 12 months of treatment, the levels a number of biochemical markers were assayed in the patient groups. […] The group treated with sevelamer had on average higher iPTH, 1-84 PTH, alkaline phosphatase, bone specific alkaline phosphatase, osteocalcin, and HDL cholesterol. The sevelamer group had lower calcium, 25-hydroxyvitamin D, total cholesterol, LDL cholesterol, apolipoprotein B, […] and total CO2.

Assay [3] deals with hemodialysis patients. Put plainly: Biochemical marker studies, 52 week randomized study in hemodialysis patients. As to conditions: end of the chronic phase of the study. An excerpt:
Protocols 1-7 for use of RenaGel® (Geltex Pharmaceuticals, Inc., Waltham, Mass.) in each of the haemodialysis patient studies are provided in the following references, respectively, the teachings of which are incorporated herein by reference in their entireties.
Chertow, G. M., Burke, S. K., Raggi, P., for the Treat to Goal Working Group, “Sevelamer attenuates the progression of coronary and aortic calcification in hemodialysis patients,” Kidney Int. 62: 245-252 (2002).
Osteocalcin and BSAP are measures of osteoblast function and are indicative of bone formation. […] There were no statistically significant differences between treatment groups in the mean change from Day 0 to Week 52 in c-telopeptides, a collagen fragment which indicates osteoclast function and bone resorption.
The study was a 52 week, randomized, open label, multi-center, parallel study designed to assess the effects of sevelamer compared to calcium acetate/carbonate in enabling hemodialysis patients to reach therapeutic goals of phosphorus <5 mg/dL, calcium <10.5 mg/dL and iPTH in the range of 150-300 pg/mL. Patients also underwent Electron Beam Tomography (EBT) scans at Day 0 and Weeks 26 and 52. These scans were used to assess changes in cardiovascular calcification over time. […]

The test system of assay [4] is hemodialysis patients. Put plainly: Bone density, baseline vs 12 month scan (Example 2). As to the method:
[…] Specifically, thoracic spine bone density was assessed by computerized tomography densitometry (density expressed as Hounsfield units). Trabecular bone density was measured in the core of the lowest vertebral body completely captured by the scanning procedure, while cortical bone density was measured in the axial plate of the same vertebral body. Care was taken to evaluate exactly the same vertebral level in consecutive scans in the same patient. No significant differences in demographics, baseline bone density or vascular calcification scores were observed between the sevelamer and calcium groups, with the exception of age, (sevelamer/Renagel group 53±12 yrs, calcium group 59±13 yrs, p=0.02).

Assay [5] concerns hemodialysis patients. Briefly: Thoracic spine bone density by computerized tomography densitometry, baseline vs 24 month EBT scan (Extension study). As to conditions: two years, FIG. 1. An excerpt: Prior to the completion and analysis of this protocol, the study was extended for an additional two years. During this extension study, patients would remain on the phosphate binder to which they were originally randomized, sevelamer or calcium acetate/carbonate, and EBT scans would be performed at Month 24 and Month 36, to assess long-term changes in cardiovascular calcification. Forty-five patients in the US and 72 patients in the EU were eligible and consented to participate in the Extension study.
Having met the endpoints of the original study, the Extension study was prematurely discontinued. Only 77 Extension study patients opted to have a final EBT scan performed.
The study's EBT Core Lab evaluated the EBT images of patients who had both a baseline and 24 month scan to assess changes over time in trabecular and cortical bone density. Specifically, thoracic spine bone density was assessed by computerized tomography densitometry (density expressed as Hounsfield units). Trabecular bone density was measured in the core of the lowest vertebral body completely captured by the scanning procedure, while cortical bone density was measured in the axial plate of the same vertebral body. Care was taken to evaluate exactly the same vertebral level in consecutive scans in the same patient. […]

[6] abbreviates: 12 month treatment period, absolute and percentage change.

In the case of calcium acetate/carbonate, the “median change in aortic calcification by Agatston score” value with hemodialysis patients [1] (p=0.0104 between groups) was found to be 75.05. In the assay on hemodialysis patients [1] (p=0.0398 between groups), the “median change in coronary artery calcification by Agatston score” value worked out at 36.55. Also, the iPTH result in the assay on hemodialysis patients [2] was “significantly lower”. Further, the “mean increase in BSAP (bone-specific alkaline phosphatase)” value with hemodialysis patients [3] (p<0.0001 between groups) stood at 6.81 U/L. In addition, in the assay on hemodialysis patients [3] (p=0.0003 between groups), the “mean increase in osteocalcin” value is 15.80 ng/mL. Further, in the assay on hemodialysis patients [4] (setting [6]), the “change in cortical bone density” value is “trend to reduced” and the “change in trabecular bone density” value is “significant reduction”. Moreover, the “magnitude of trabecular bone density loss, mean” value in the assay on hemodialysis patients [4] (52 weeks) is −5%. In the assay with hemodialysis patients [5], the “change in cortical bone density from baseline” value is reported as “non-significant decrease” and the “change in trabecular bone density from baseline” value was “significant reduction”.

The values are drawn from patent US20040120922A1, “Method for promoting bone formation” (Genzyme Corporation, priority 2002, published 2004).
